Results published in ChEMBL document CHEMBL3137667, “[Drug-induced liver injury; fourteenth updated edition of the bibliographic database of liver injuries and related drugs]” (Gastroenterol Clin Biol, 2004).
Where a SMILES comes first, the peptide text is derived from it. Bridges are numbered along the chain shown (N, C = ends). [ ]: non-standard residue; d: D form.

How the values were obtained:
[1] = human
[2] = human; remark: listed apart in the source
[3] = human; remark: listed apart in the source
[4] = Highest frequency of acute liver toxicity observed during clinical trials, expressed as a percentage. [column '% AIGUE' in source]; details: human
[5] = human; remark: listed apart in the source
[6] = human, serum
[7] = human; remark: listed apart in the source
[8] = human; remark: listed apart in the source
[9] = human; remark: listed apart in the source
[10] = human; remark: listed apart in the source
[11] = Highest frequency of moderate liver toxicity observed during clinical trials, expressed as a percentage. [column '% BIOL' in source]; details: human
[12] = human, serum, 4383 h
[13] = human; remark: listed apart in the source
[14] = human, serum; remark: listed apart in the source
[15] = Comments (NB not yet translated). [column 'COMMENTAIRES' in source]; details: human
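Throughout, for Hepatotoxicity (association with vascular disease): count of indexed literature references reporting vascular liver injury in humans, e.g. peliosis hepatitis, hepatic veno-occlusive disease or Budd-Chiari syndrome.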
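Throughout, for Hepatotoxicity (benign tumour): value is a count of indexed literature references citing a benign tumour confirmed by histopathology.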
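Throughout, for Hepatotoxicity (choleostasis): human cholestatic liver injury, shown by histopathology or by peak ALT or AST elevation over alkaline phosphatase ratio below 2, value counts indexed literature reports.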
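Throughout, for Hepatotoxicity (chronic liver disease): chronic liver injury confirmed by histopathology or persistently raised serum aminotransferase activity beyond 6 months, value given as the count of indexed literature references.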
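Throughout, for Hepatotoxicity (cirrhosis): value is a count of indexed literature references reporting cirrhosis confirmed by histopathology.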
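Throughout, for Hepatotoxicity (cytolytic): human cytolytic liver injury, shown by histopathology or by a ratio above 5 of peak ALT or AST elevation to alkaline phosphatase elevation, value counts indexed references.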
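Throughout, for Hepatotoxicity (granulomatous hepatitis): value is a count of indexed literature references reporting granulomatous liver disease confirmed by histopathology.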
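Throughout, for Hepatotoxicity (malignant tumour): malignant tumour confirmed by histopathology, value gives the count of indexed literature references reporting it.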
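Throughout, for Hepatotoxicity (severe hepatitis): human clinical data: severe hepatitis, meaning potentially life-threatening liver failure or clinically observed cases, the value counts how many indexed literature references report it.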
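Throughout, for Hepatotoxicity (steatosis): steatosis confirmed by histopathology, value is the count of indexed references.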

CC1=C(C/C=C(\C)CCC[C@H](C)CCC[C@H](C)CCCC(C)C)C(=O)c2ccccc2C1=O [PHYTONADIONE]
Hepatotoxicity (benign tumour) [1]: 0 | Hepatotoxicity (association with vascular disease) [2]: 0 | Hepatotoxicity (choleostasis) [3]: 0 | Hepatotoxicity (acute) [4]: 0% | Hepatotoxicity (cirrhosis) [5]: 0 | Hepatotoxicity (moderate) [6]: 0 | Hepatotoxicity (severe hepatitis) [7]: 0 | Hepatotoxicity (cytolytic) [8]: 0 | Hepatotoxicity (malignant tumour) [9]: 0 | Hepatotoxicity (granulomatous hepatitis) [10]: 0 | Hepatotoxicity (moderate) [11]: 0% | Hepatotoxicity (chronic liver disease) [12]: 0 | Hepatotoxicity (steatosis) [13]: 0 | Hepatotoxicity (acute) [14]: 5 | Hepatotoxicity (comment) [15]: ICTERE_NEONATAL

ANTIMONY (III) ION
Hepatotoxicity (benign tumour) [1]: 0 | Hepatotoxicity (association with vascular disease) [2]: 0 | Hepatotoxicity (choleostasis) [3]: 0 | Hepatotoxicity (acute) [4]: 0% | Hepatotoxicity (cirrhosis) [5]: 0 | Hepatotoxicity (moderate) [6]: 0 | Hepatotoxicity (severe hepatitis) [7]: 0 | Hepatotoxicity (cytolytic) [8]: 1 | Hepatotoxicity (malignant tumour) [9]: 0 | Hepatotoxicity (granulomatous hepatitis) [10]: 0 | Hepatotoxicity (moderate) [11]: 0% | Hepatotoxicity (chronic liver disease) [12]: 0 | Hepatotoxicity (steatosis) [13]: 0 | Hepatotoxicity (acute) [14]: 1 | Hepatotoxicity (comment) [15]: HEPATONEPHRITE

CC[C@H](c1ccc(O)cc1)[C@@H](CC)c1ccc(O)cc1 [HEXESTROL]
Hepatotoxicity (benign tumour) [1]: 0 | Hepatotoxicity (association with vascular disease) [2]: 0 | Hepatotoxicity (choleostasis) [3]: 0 | Hepatotoxicity (acute) [4]: 0% | Hepatotoxicity (cirrhosis) [5]: 0 | Hepatotoxicity (moderate) [6]: 0 | Hepatotoxicity (severe hepatitis) [7]: 0 | Hepatotoxicity (cytolytic) [8]: 0 | Hepatotoxicity (malignant tumour) [9]: 0 | Hepatotoxicity (granulomatous hepatitis) [10]: 0 | Hepatotoxicity (moderate) [11]: 0% | Hepatotoxicity (chronic liver disease) [12]: 1 | Hepatotoxicity (steatosis) [13]: 1 | Hepatotoxicity (acute) [14]: 0 | Hepatotoxicity (comment) [15]: NASH

C[C@]12CCC(=O)C=C1CC[C@@H]1[C@@H]2C(=O)C[C@@]2(C)[C@H]1CC[C@]2(O)C(=O)CO [CORTISONE]
Hepatotoxicity (benign tumour) [1]: 0 | Hepatotoxicity (association with vascular disease) [2]: 2 | Hepatotoxicity (choleostasis) [3]: 0 | Hepatotoxicity (acute) [4]: 0% | Hepatotoxicity (cirrhosis) [5]: 0 | Hepatotoxicity (moderate) [6]: 0 | Hepatotoxicity (severe hepatitis) [7]: 0 | Hepatotoxicity (cytolytic) [8]: 0 | Hepatotoxicity (malignant tumour) [9]: 0 | Hepatotoxicity (granulomatous hepatitis) [10]: 0 | Hepatotoxicity (moderate) [11]: 0% | Hepatotoxicity (chronic liver disease) [12]: 0 | Hepatotoxicity (steatosis) [13]: 5 | Hepatotoxicity (acute) [14]: 0 | Hepatotoxicity (comment) [15]: AGGRAVATION_HEPATITE_VIRALE

COc1cc([C@@H]2c3cc4c(cc3[C@@H](O[C@@H]3O[C@@H]5CO[C@@H](c6cccs6)O[C@H]5[C@H](O)[C@H]3O)[C@H]3COC(=O)[C@H]23)OCO4)cc(OC)c1O [TENIPOSIDE]
Hepatotoxicity (benign tumour) [1]: 0 | Hepatotoxicity (association with vascular disease) [2]: 1 | Hepatotoxicity (choleostasis) [3]: 0 | Hepatotoxicity (acute) [4]: 0% | Hepatotoxicity (cirrhosis) [5]: 0 | Hepatotoxicity (moderate) [6]: 4 | Hepatotoxicity (severe hepatitis) [7]: 0 | Hepatotoxicity (cytolytic) [8]: 0 | Hepatotoxicity (malignant tumour) [9]: 0 | Hepatotoxicity (granulomatous hepatitis) [10]: 0 | Hepatotoxicity (moderate) [11]: 23.8% | Hepatotoxicity (chronic liver disease) [12]: 0 | Hepatotoxicity (steatosis) [13]: 0 | Hepatotoxicity (acute) [14]: 0 | Hepatotoxicity (comment) [15]: HNR

CC(C)[C@@H]1NC(=O)[C@H](CCCCN)NC(=O)[C@@H](Cc2c[nH]c3ccccc23)NC(=O)[C@H](Cc2ccc(O)cc2)NC(=O)[C@@H](NC(=O)[C@H](N)Cc2ccccc2)CSSC[C@@H](C(=O)N[C@@H](Cc2c[nH]c3ccccc23)C(N)=O)NC1=O [VAPREOTIDE] (H-[dF]CY[dW]KVCW-NH2; disulfide 2-7)
Hepatotoxicity (benign tumour) [1]: 0 | Hepatotoxicity (association with vascular disease) [2]: 0 | Hepatotoxicity (choleostasis) [3]: 0 | Hepatotoxicity (acute) [4]: 0% | Hepatotoxicity (cirrhosis) [5]: 0 | Hepatotoxicity (moderate) [6]: 1 | Hepatotoxicity (severe hepatitis) [7]: 0 | Hepatotoxicity (cytolytic) [8]: 0 | Hepatotoxicity (malignant tumour) [9]: 0 | Hepatotoxicity (granulomatous hepatitis) [10]: 0 | Hepatotoxicity (moderate) [11]: 4.8% | Hepatotoxicity (chronic liver disease) [12]: 0 | Hepatotoxicity (steatosis) [13]: 0 | Hepatotoxicity (acute) [14]: 0 | Hepatotoxicity (comment) [15]: LITHIASE

CO/N=C(\C(=O)N[C@@H]1C(=O)N2C(C(=O)O)=C(CSc3nnnn3C)CS[C@H]12)c1csc(N)n1 [CEFMENOXIME]
Hepatotoxicity (benign tumour) [1]: 0 | Hepatotoxicity (association with vascular disease) [2]: 0 | Hepatotoxicity (choleostasis) [3]: 1 | Hepatotoxicity (acute) [4]: 0% | Hepatotoxicity (cirrhosis) [5]: 0 | Hepatotoxicity (moderate) [6]: 11 | Hepatotoxicity (severe hepatitis) [7]: 0 | Hepatotoxicity (cytolytic) [8]: 0 | Hepatotoxicity (malignant tumour) [9]: 0 | Hepatotoxicity (granulomatous hepatitis) [10]: 1 | Hepatotoxicity (moderate) [11]: 12.2% | Hepatotoxicity (chronic liver disease) [12]: 0 | Hepatotoxicity (steatosis) [13]: 0 | Hepatotoxicity (acute) [14]: 1 | Hepatotoxicity (comment) [15]: CHOLESTASE_PROLONGEE

CC(C)[C@@H]1NC(=O)[C@H](CCCCN)NC(=O)[C@@H](Cc2c[nH]c3ccccc23)NC(=O)[C@H](Cc2ccc(O)cc2)NC(=O)[C@@H](NC(=O)[C@H](N)Cc2ccc3ccccc3c2)CSSC[C@@H](C(=O)N[C@H](C(N)=O)[C@@H](C)O)NC1=O [LANREOTIDE]
Hepatotoxicity (benign tumour) [1]: 0 | Hepatotoxicity (association with vascular disease) [2]: 0 | Hepatotoxicity (choleostasis) [3]: 0 | Hepatotoxicity (acute) [4]: 0% | Hepatotoxicity (cirrhosis) [5]: 0 | Hepatotoxicity (moderate) [6]: 0 | Hepatotoxicity (severe hepatitis) [7]: 0 | Hepatotoxicity (cytolytic) [8]: 0 | Hepatotoxicity (malignant tumour) [9]: 0 | Hepatotoxicity (granulomatous hepatitis) [10]: 0 | Hepatotoxicity (moderate) [11]: 0% | Hepatotoxicity (chronic liver disease) [12]: 0 | Hepatotoxicity (steatosis) [13]: 0 | Hepatotoxicity (acute) [14]: 0 | Hepatotoxicity (comment) [15]: BOUE_BILIAIRE LITHIASE_VESICULAIRE ENCEPHALOPATHIE

CN(C)C(=O)Oc1cc(OC(=O)N(C)C)cc(C(O)CNC(C)(C)C)c1 (stereo not given) [BAMBUTEROL]
Hepatotoxicity (benign tumour) [1]: 0 | Hepatotoxicity (association with vascular disease) [2]: 0 | Hepatotoxicity (choleostasis) [3]: 0 | Hepatotoxicity (acute) [4]: 0% | Hepatotoxicity (cirrhosis) [5]: 0 | Hepatotoxicity (moderate) [6]: 1 | Hepatotoxicity (severe hepatitis) [7]: 0 | Hepatotoxicity (cytolytic) [8]: 0 | Hepatotoxicity (malignant tumour) [9]: 0 | Hepatotoxicity (granulomatous hepatitis) [10]: 0 | Hepatotoxicity (moderate) [11]: 0% | Hepatotoxicity (chronic liver disease) [12]: 0 | Hepatotoxicity (steatosis) [13]: 0 | Hepatotoxicity (acute) [14]: 0 | Hepatotoxicity (comment) [15]: VOIR_TERBUTALINE

O=C1Nc2ccc(Cl)cc2C(c2ccccc2Cl)=NC1O (stereo not given) [LORAZEPAM]
Hepatotoxicity (benign tumour) [1]: 0 | Hepatotoxicity (association with vascular disease) [2]: 0 | Hepatotoxicity (choleostasis) [3]: 0 | Hepatotoxicity (acute) [4]: 0% | Hepatotoxicity (cirrhosis) [5]: 0 | Hepatotoxicity (moderate) [6]: 1 | Hepatotoxicity (severe hepatitis) [7]: 0 | Hepatotoxicity (cytolytic) [8]: 0 | Hepatotoxicity (malignant tumour) [9]: 0 | Hepatotoxicity (granulomatous hepatitis) [10]: 0 | Hepatotoxicity (moderate) [11]: 0% | Hepatotoxicity (chronic liver disease) [12]: 0 | Hepatotoxicity (steatosis) [13]: 0 | Hepatotoxicity (acute) [14]: 1 | Hepatotoxicity (comment) [15]: I/PYRIMETHAMINE
